Patent US10287252B2, “Inhibitors of tryptophan-2,3-dioxygenase or indoleamine-2,3-dioxygenase” (IOmet Pharma Ltd., priority 2014, dated 2019)

Key:
IDO [1] = target: T1, IDO (Homo sapiens, UniProt P14902); test: hIDO biochemical coupled assay; conditions: 45 μM L-tryptophan, coupled with kynurenine formamidase
Experimental: (§1) Exemplary compounds of the invention were prepared, and tested to determine their effect as TDO and/or IDO inhibitors. Two different assays were employed: 1. a cell-based assay for detecting the effect of test compounds on kynurenine production in two different cancer cell types. This assay utilised cancer cells which expressed either TDO or IDO and as such was used as a means of testing compound activity at these two enzymes in a cell-based context. 2. a TDO and IDO biochemical coupled assay which utilised recombinantly produced and purified TDO and IDO enzymes in combination with the enzyme formamidase. This coupled enzyme system allowed conversion of N-formylkynurenine produced by TDO or IDO activity to kynurenine which was then quantified by fluorescence following addition of Erhlich's Reagent The protocols for these are set out below.
(§2) TDO and IDO Biochemical Coupled Assay
(§3) Recombinant human IDO or TDO was incubated in 50 mM KPO4 (pH 7.0), 0.5 mM EGTA, 0.5 mM EDTA, 0.05% Triton™ X100, 20 mM ascorbate, 10 μM methylene blue, 500 U/ml catalase, 50 μg/ml KynB (kynurenine formamidase). TDO assays were carried out in the presence of 330 μM L-tryptophan, while IDO assays had the addition of 45 μM L-tryptophan. After incubation for 17 minutes at room temperature the reactions were stopped by the addition of Erhlich's reagent and incubated at room temperature for 5 minutes before the fluorescence was read (Ex475, Em530).

IDO [2] = target: T1, IDO; test: SKOV3 Kynurenine cell based assay; parameters: IDO expression was induced in the SKOV3 cells by the addition of 500 ng/ml IFN-γ; endogenous in cells; host or cells: SKOV3 (human ovarian adenocarcinoma), induced with IFN-γ; conditions: SKOV3 (human ovarian adenocarcinoma) cells, IDO induced by 500 ng/ml IFN-γ, 500 μM L-tryptophan, 48 hours; for IC50: read-out: SKOV3 Kynurenine cell based assay pIC50 (converted)
Experimental: as §1
(§4) Cell Based Assay for Detection of Kynurenine Produced by TDO and/or IDO
(§5) A172 (human glioblastoma) and SKOV3 (human ovarian adenocarcinoma) cells were seeded in a 96 well plate at 30,000 or 40,000 cells per well respectively in phenol red-free RPMI supplemented with 10% FCS, 2 mM L-glutamine and 500 μM L-tryptophan. IDO expression was induced in the SKOV3 cells by the addition of 500 ng/ml IFN-γ. Cells were incubated at 37° C. with or without the addition of test compound. After 48 hours, the cells were removed by centrifugation and Erhlich's reagent was added to the supernatant. The Erhlich's reagent was incubated for 5 minutes before the absorbance was read at 490 nm.

TDO [3] = target: T2, TDO (Homo sapiens, UniProt P48775); test: hTDO biochemical coupled assay; conditions: 330 μM L-tryptophan, coupled with kynurenine formamidase
T2 sequence (P48775 whole entry): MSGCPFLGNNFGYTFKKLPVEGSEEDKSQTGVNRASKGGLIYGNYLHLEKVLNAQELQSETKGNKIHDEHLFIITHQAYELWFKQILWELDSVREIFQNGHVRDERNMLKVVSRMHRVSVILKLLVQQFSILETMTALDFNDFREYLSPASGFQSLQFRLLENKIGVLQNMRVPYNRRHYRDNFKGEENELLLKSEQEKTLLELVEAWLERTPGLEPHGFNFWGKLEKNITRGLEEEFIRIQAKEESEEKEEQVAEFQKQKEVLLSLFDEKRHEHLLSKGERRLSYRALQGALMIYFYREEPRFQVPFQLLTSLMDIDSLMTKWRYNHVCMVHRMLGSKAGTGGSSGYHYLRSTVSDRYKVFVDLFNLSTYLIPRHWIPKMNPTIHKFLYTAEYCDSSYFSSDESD
Experimental: as §1, §2, §3

TDO [4] = target: T2, TDO; test: A172 Kynurenine cell based assay; parameters: This assay utilised cancer cells which expressed either TDO or IDO; endogenous in cells; host or cells: A172 (human glioblastoma); conditions: A172 (human glioblastoma) cells, 500 μM L-tryptophan, 48 hours, kynurenine by Erhlich's reagent; for IC50: read-out: A172 Kynurenine cell based assay pIC50 (converted)
Experimental: as §1, §4, §5

T1 sequence (P14902 whole entry): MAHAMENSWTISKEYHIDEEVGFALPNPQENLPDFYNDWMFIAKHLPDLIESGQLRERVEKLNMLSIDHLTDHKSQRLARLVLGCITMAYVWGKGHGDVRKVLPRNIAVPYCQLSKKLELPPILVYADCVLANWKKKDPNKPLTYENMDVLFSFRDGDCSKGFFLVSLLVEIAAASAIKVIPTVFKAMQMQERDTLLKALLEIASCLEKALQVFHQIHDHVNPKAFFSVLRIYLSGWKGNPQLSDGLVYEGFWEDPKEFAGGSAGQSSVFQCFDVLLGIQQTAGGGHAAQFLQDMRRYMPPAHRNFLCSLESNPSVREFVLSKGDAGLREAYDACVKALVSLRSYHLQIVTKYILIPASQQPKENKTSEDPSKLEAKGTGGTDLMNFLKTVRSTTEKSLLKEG

Structure (SMILES) | hIDO biochemical assay pIC50 (IDO [1]) | SKOV3 Kynurenine cell based assay pIC50 (IDO [2]) | hTDO biochemical assay pIC50 (TDO [3]) | A172 Kynurenine cell based assay pIC50 (TDO [4]) | IC50 (IDO [2]) | IC50 (TDO [4])
Cc1cc2c(NS(=O)(=O)c3ccccc3)cccc2nn1 [Compound 1] | ++ (++ = pIC50 4.50-5.49) | + (+ = pIC50 4.00-4.49) | ++ (++ = pIC50 4.50-5.49) | + (+ = pIC50 4.00-4.49) | – | –
Cc1cc2c(NC(=O)c3ccc4ncccc4c3)cccc2nn1 [Compound 2] | +/− (+/− = pIC50 <4.00) | + (+ = pIC50 4.00-4.49) | ++ (++ = pIC50 4.50-5.49) | + (+ = pIC50 4.00-4.49) | – | –
Cc1cc2c(NC(=O)c3ccc4ccccc4n3)cccc2nn1 [Compound 3] | +/− (+/− = pIC50 <4.00) | +/− (+/− = pIC50 <4.00) | + (+ = pIC50 4.00-4.49) | + (+ = pIC50 4.00-4.49) | – | –
CC(C)CS(=O)(=O)Nc1cccc2cnccc12 [Compound 4] | ++ (++ = pIC50 4.50-5.49) | +/− (+/− = pIC50 <4.00) | +++ (+++ = pIC50 ≥5.50) | + (+ = pIC50 4.00-4.49) | – | –
COc1cccc(S(=O)(=O)Nc2cccc3cnccc23)c1 [Compound 14] | ++ (++ = pIC50 4.50-5.49) | ++ (++ = pIC50 4.50-5.49) | – | +++ (+++ = pIC50 ≥5.50) | – | –
CN1CCOc2cc(S(=O)(=O)Nc3cccc4cnccc34)ccc21 [Compound 28] | – | – | – | – | 3.24 to 31.6 µM | ≤ 3.16 µM
O=S(=O)(Nc1cccc2cnccc12)c1ccc(Cl)s1 [Compound 29] | – | ++ (++ = pIC50 4.50-5.49) | – | ++ (++ = pIC50 4.50-5.49) | – | –
O=S(=O)(Nc1cccc2cnccc12)c1cccc2cccnc12 [Compound 30] | – | + (+ = pIC50 4.00-4.49) | – | +/− (+/− = pIC50 <4.00) | – | –
CC(C)Oc1ccc(S(=O)(=O)Nc2cccc3cnccc23)cc1 [Compound 31] | – | +++ (+++ = pIC50 ≥5.50) | – | +/− (+/− = pIC50 <4.00) | – | –
O=C(Nc1ccc2cnccc2c1)c1ccccc1 [Compound 32] | – | + (+ = pIC50 4.00-4.49) | – | +/− (+/− = pIC50 <4.00) | – | –
O=C(Nc1cncc2ccccc12)c1ccccc1 [Compound 33] | – | + (+ = pIC50 4.00-4.49) | – | +/− (+/− = pIC50 <4.00) | – | –
CS(=O)(=O)c1ccc(S(=O)(=O)Nc2cccc3cnccc23)cc1 [Compound 34] | – | + (+ = pIC50 4.00-4.49) | – | +/− (+/− = pIC50 <4.00) | – | –
COc1ccc(S(=O)(=O)Nc2cccc3cnccc23)cc1 [Compound 35] | – | ++ (++ = pIC50 4.50-5.49) | – | +++ (+++ = pIC50 ≥5.50) | – | –
N#Cc1ccccc1S(=O)(=O)Nc1cccc2cnccc12 [Compound 36] | – | + (+ = pIC50 4.00-4.49) | – | +/− (+/− = pIC50 <4.00) | – | –
CC(C)S(=O)(=O)Nc1cccc2cnccc12 [Compound 37] | – | +/− (+/− = pIC50 <4.00) | – | + (+ = pIC50 4.00-4.49) | – | –
O=S(=O)(Nc1cncc2ccccc12)c1ccccc1 [Compound 38] | – | + (+ = pIC50 4.00-4.49) | – | + (+ = pIC50 4.00-4.49) | – | –
O=S(=O)(Nc1ccc2cnccc2c1)c1ccccc1 [Compound 39] | – | + (+ = pIC50 4.00-4.49) | – | +/− (+/− = pIC50 <4.00) | – | –

Structure (SMILES) | hIDO biochemical assay pIC50 (IDO [1]) | SKOV3 Kynurenine cell based assay pIC50 (IDO [2]) | hTDO biochemical assay pIC50 (TDO [3]) | A172 Kynurenine cell based assay pIC50 (TDO [4]) | IC50 (IDO [2]) | IC50 (TDO [4])
Nc1nccc2c(NS(=O)(=O)c3ccccc3)cccc12 [Compound 40] | – | + (+ = pIC50 4.00-4.49) | – | + (+ = pIC50 4.00-4.49) | – | –
CC(=O)Nc1cc2c(NS(=O)(=O)c3ccccc3)cccc2cn1 [Compound 41] | – | + (+ = pIC50 4.00-4.49) | – | +/− (+/− = pIC50 <4.00) | – | –
CN(c1ccccc1)S(=O)(=O)c1cccc2cnccc12 [Compound 42] | – | + (+ = pIC50 4.00-4.49) | – | + (+ = pIC50 4.00-4.49) | – | –
O=C(Nc1ccccc1)c1cccc2cnccc12 [Compound 43] | – | + (+ = pIC50 4.00-4.49) | – | +/− (+/− = pIC50 <4.00) | – | –
O=S(=O)(Nc1ccccc1)c1cccc2cnccc12 [Compound 44] | – | ++ (++ = pIC50 4.50-5.49) | – | + (+ = pIC50 4.00-4.49) | – | –
CS(=O)(=O)N1CCN(c2cccc3cnccc23)CC1 [Compound 45, 5-(4-(methylsulfonyl)piperazin-1-yl)isoquinoline] | – | – | – | – | 32.4 to 100 µM | > 100 µM
O=S(=O)(Nc1ccc(Cl)cc1)c1cccc2cnccc12 [Compound 46] | – | ++ (++ = pIC50 4.50-5.49) | – | + (+ = pIC50 4.00-4.49) | – | –
O=S(=O)(Nc1ccc(-c2ccccc2)cc1)c1cccc2cnccc12 [Compound 47] | – | ++ (++ = pIC50 4.50-5.49) | – | ++ (++ = pIC50 4.50-5.49) | – | –
CC(=O)N1CCN(c2cccc3cnccc23)CC1 [Compound 48] | – | + (+ = pIC50 4.00-4.49) | – | +/− (+/− = pIC50 <4.00) | – | –
O=S(=O)(NC1CCCc2cnccc21)c1ccccc1 (stereo not drawn) [Compound 49] | – | + (+ = pIC50 4.00-4.49) | – | +/− (+/− = pIC50 <4.00) | – | –
O=S(=O)(NC1CCCc2cnccc21)c1ccc(-c2ccccc2)cc1 (stereo not drawn) [Compound 50] | – | +++ (+++ = pIC50 ≥5.50) | – | +/− (+/− = pIC50 <4.00) | – | –
O=S(=O)(NC1CCCc2cnccc21)c1ccc(Cl)cc1 (stereo not drawn) [Compound 51] | – | ++ (++ = pIC50 4.50-5.49) | – | +/− (+/− = pIC50 <4.00) | – | –
CC(C)Oc1ccc(S(=O)(=O)NC2CCCc3cnccc32)cc1 (stereo not drawn) [Compound 52] | – | – | – | – | ≤ 3.16 µM | > 100 µM
CC(C)Oc1ccc(S(=O)(=O)Nc2cccc3ccncc23)cc1 [Compound 53] | – | + (+ = pIC50 4.00-4.49) | – | + (+ = pIC50 4.00-4.49) | – | –
O=S(=O)(Nc1cccc2ccncc12)c1ccc(-c2ccccc2)cc1 [Compound 54] | – | + (+ = pIC50 4.00-4.49) | – | + (+ = pIC50 4.00-4.49) | – | –
O=S(=O)(Nc1cccc2ccncc12)c1ccc(Cl)cc1 [Compound 55] | – | ++ (++ = pIC50 4.50-5.49) | – | + (+ = pIC50 4.00-4.49) | – | –
